Measurements taken from ChEMBL document CHEMBL4507310, “Data for DCP probe A-1211212” (2021).

Tests used:
[1] = molecular target: Cyclin-dependent kinase 5 (Homo sapiens) (UniProt Q00535); conditions: Compound concentration 1000.0 nM
[2] = molecular target: Serine/threonine-protein kinase PknB (Mycobacterium tuberculosis) (UniProt P9WI81); conditions: Compound concentration 1000.0 nM
[3] = molecular target: Endothelin receptor type B (Homo sapiens) (UniProt P24530); assay: ETB (h) Eurofins-Cerep binding assay; design: ligand concentration 0.03 nM; conditions: filed as agonist, Compound concentration 10.0 uM
[4] = molecular target: Protein kinase C delta type (Homo sapiens) (UniProt Q05655); conditions: Compound concentration 1000.0 nM
[5] = molecular target: 3-phosphoinositide-dependent protein kinase 1 (Homo sapiens) (UniProt O15530); conditions: Compound concentration 1000.0 nM
[6] = molecular target: Dual specificity protein kinase CLK3 (Homo sapiens) (UniProt P49761); conditions: Compound concentration 1000.0 nM
[7] = molecular target: Cyclin-dependent kinase 11A (Homo sapiens) (UniProt Q9UQ88); conditions: Compound concentration 1000.0 nM
[8] = molecular target: Serine/threonine-protein kinase MRCK alpha (Homo sapiens) (UniProt Q5VT25); conditions: Compound concentration 1000.0 nM
[9] = molecular target: Serine/threonine-protein kinase ULK1 (Homo sapiens) (UniProt O75385); conditions: Compound concentration 1000.0 nM
[10] = molecular target: Tyrosine-protein kinase Fyn (Homo sapiens) (UniProt P06241); conditions: Compound concentration 1000.0 nM
[11] = molecular target: Serine/threonine-protein kinase PAK 5 (Homo sapiens) (UniProt Q9P286); conditions: Compound concentration 1000.0 nM
[12] = molecular target: 5-hydroxytryptamine receptor 2B (Homo sapiens) (UniProt P41595); conditions: Compound concentration 10.0 uM
[13] = molecular target: ALK tyrosine kinase receptor (Homo sapiens) (UniProt Q9UM73); conditions: Compound concentration 1000.0 nM
[14] = molecular target: Cholecystokinin receptor type A (Homo sapiens) (UniProt P32238); assay: CCK1 (CCKA) (h) Eurofins-Cerep binding assay; design: ligand concentration 0.08 nM; conditions: filed as agonist, Compound concentration 10.0 uM
[15] = molecular target: Serine/threonine-protein kinase 10 (Homo sapiens) (UniProt O94804); conditions: Compound concentration 1000.0 nM
[16] = molecular target: Serine/threonine-protein kinase PRP4 homolog (Homo sapiens) (UniProt Q13523); conditions: Compound concentration 1000.0 nM
[17] = molecular target: Delta-type opioid receptor (Homo sapiens) (UniProt P41143); assay: delta (DOP) (h) Eurofins-Cerep binding assay; design: ligand concentration 0.5 nM; conditions: filed as agonist, Compound concentration 10.0 uM
[18] = system: Hepatocyte growth factor receptor (Homo sapiens), P08581 [M1250T]; conditions: Compound concentration 1000.0 nM
[19] = molecular target: Tyrosine-protein kinase Fgr (Homo sapiens) (UniProt P09769); conditions: Compound concentration 1000.0 nM
[20] = system: Receptor-type tyrosine-protein kinase FLT3 (Homo sapiens), P36888 [R834Q]; conditions: Compound concentration 1000.0 nM
[21] = molecular target: Cyclin-dependent kinase 16 (Homo sapiens) (UniProt Q00536); conditions: Compound concentration 1000.0 nM
[22] = molecular target: Tyrosine-protein kinase Srms (Homo sapiens) (UniProt Q9H3Y6); conditions: Compound concentration 1000.0 nM
[23] = molecular target: G protein-coupled receptor kinase 3 (Homo sapiens) (UniProt P35626); conditions: Compound concentration 1000.0 nM
[24] = molecular target: Casein kinase I isoform epsilon (Homo sapiens) (UniProt P49674); conditions: Compound concentration 1000.0 nM
[25] = molecular target: Muscle, skeletal receptor tyrosine-protein kinase (Homo sapiens) (UniProt O15146); conditions: Compound concentration 1000.0 nM
[26] = molecular target: RAF proto-oncogene serine/threonine-protein kinase (Homo sapiens) (UniProt P04049); conditions: Compound concentration 1000.0 nM
[27] = molecular target: Urotensin-2 receptor (Homo sapiens) (UniProt Q9UKP6); assay: UT (h) Eurofins-Cerep binding assay; design: ligand concentration 0.1 nM; conditions: filed as agonist, Compound concentration 10.0 uM
Na+ channel (site 2) = Na+ channel (site 2) (Rattus norvegicus, UniProt F1LQQ7+O08562+O88420+O88457+P04774+P04775+P08104+P15389+P15390+Q62968); assay: Na+ channel (site 2) Eurofins-Cerep binding assay; type: protein assay; design: incubation time 60 min, incubation temperature 37°C, ligand concentration 10 nM; conditions: rat cerebral cortex, probe [3H]batrachotoxin (10 nM), compound concentration 10 uM, read-out: % Inhibition of Control Specific Binding (Mean n=2)
[28] = molecular target: Mitogen-activated protein kinase 10 (Homo sapiens) (UniProt P53779); conditions: Compound concentration 1000.0 nM
[29] = molecular target: Serine/threonine-protein kinase PLK4 (Homo sapiens) (UniProt O00444); conditions: Compound concentration 1000.0 nM
[30] = molecular target: Discoidin domain-containing receptor 2 (Homo sapiens) (UniProt Q16832); conditions: Compound concentration 1000.0 nM
[31] = molecular target: Kappa-type opioid receptor (Homo sapiens) (UniProt P41145); assay: kappa (h) (KOP) Eurofins-Cerep binding assay; design: ligand concentration 0.5 nM; conditions: filed as agonist, Compound concentration 10.0 uM
[32] = molecular target: Hepatocyte growth factor receptor (Homo sapiens) (UniProt P08581); conditions: Compound concentration 1000.0 nM
[33] = molecular target: Serine/threonine-protein kinase WNK4 (Homo sapiens) (UniProt Q96J92); conditions: Compound concentration 1000.0 nM
[34] = molecular target: T1, Muscarinic acetylcholine receptor M2 (Homo sapiens) (UniProt P08172); conditions: Compound concentration 10.0 uM
T1 sequence (whole entry): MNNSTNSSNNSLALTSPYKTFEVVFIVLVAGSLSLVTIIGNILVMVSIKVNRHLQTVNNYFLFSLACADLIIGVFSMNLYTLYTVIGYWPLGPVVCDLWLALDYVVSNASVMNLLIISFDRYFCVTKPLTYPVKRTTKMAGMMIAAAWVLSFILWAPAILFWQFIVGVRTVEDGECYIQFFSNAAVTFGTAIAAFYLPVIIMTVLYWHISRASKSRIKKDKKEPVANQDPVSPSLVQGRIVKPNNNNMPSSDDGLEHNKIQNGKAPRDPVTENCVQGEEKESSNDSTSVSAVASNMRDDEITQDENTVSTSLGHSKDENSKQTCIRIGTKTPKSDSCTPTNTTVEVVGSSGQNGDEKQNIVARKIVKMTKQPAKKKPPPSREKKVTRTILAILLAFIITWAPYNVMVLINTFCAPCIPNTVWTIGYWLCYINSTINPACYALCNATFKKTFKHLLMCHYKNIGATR

[35] = molecular target: T1, Muscarinic acetylcholine receptor M2 (Homo sapiens); assay: M2 (h) Eurofins-Cerep binding assay; design: ligand concentration 2 nM; conditions: filed as antagonist, Compound concentration 10.0 uM
[36] = system: Epidermal growth factor receptor (Homo sapiens), P00533 [UNDEFINED MUTATION]; conditions: Compound concentration 1000.0 nM
[37] = molecular target: Activin receptor type-1-like (Homo sapiens) (UniProt P37023); conditions: Compound concentration 1000.0 nM

Sequence of Serine/threonine-protein kinase ULK1 (Homo sapiens) (O75385 whole entry): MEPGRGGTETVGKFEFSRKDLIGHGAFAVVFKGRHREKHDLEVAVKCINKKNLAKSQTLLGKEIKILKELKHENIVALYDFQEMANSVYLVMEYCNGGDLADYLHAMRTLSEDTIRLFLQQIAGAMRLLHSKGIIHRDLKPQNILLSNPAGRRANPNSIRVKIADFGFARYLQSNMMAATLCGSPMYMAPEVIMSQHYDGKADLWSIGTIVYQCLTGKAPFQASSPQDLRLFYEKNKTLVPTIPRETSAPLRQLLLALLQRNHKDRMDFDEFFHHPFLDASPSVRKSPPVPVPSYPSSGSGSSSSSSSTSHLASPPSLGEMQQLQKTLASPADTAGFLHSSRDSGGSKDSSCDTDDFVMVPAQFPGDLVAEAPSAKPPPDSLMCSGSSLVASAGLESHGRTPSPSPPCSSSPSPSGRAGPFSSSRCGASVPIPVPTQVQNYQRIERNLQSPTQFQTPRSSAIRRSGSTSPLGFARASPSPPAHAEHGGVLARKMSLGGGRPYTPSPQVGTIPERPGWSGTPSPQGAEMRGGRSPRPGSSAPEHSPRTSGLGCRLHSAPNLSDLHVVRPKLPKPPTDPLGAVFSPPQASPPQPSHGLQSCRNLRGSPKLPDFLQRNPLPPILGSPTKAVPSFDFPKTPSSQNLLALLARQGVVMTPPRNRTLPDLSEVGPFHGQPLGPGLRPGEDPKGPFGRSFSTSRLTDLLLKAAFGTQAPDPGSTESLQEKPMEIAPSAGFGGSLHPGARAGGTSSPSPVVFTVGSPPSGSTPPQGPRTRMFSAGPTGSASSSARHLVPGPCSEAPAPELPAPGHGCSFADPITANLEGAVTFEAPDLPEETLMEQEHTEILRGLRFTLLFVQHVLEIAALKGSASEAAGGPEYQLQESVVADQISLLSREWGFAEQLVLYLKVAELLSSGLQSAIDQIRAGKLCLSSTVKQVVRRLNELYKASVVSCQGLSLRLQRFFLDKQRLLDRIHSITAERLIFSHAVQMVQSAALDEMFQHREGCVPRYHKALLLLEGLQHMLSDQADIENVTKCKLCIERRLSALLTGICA
Sequence of Serine/threonine-protein kinase PLK4 (Homo sapiens) (O00444 whole entry, the tested form may be a part): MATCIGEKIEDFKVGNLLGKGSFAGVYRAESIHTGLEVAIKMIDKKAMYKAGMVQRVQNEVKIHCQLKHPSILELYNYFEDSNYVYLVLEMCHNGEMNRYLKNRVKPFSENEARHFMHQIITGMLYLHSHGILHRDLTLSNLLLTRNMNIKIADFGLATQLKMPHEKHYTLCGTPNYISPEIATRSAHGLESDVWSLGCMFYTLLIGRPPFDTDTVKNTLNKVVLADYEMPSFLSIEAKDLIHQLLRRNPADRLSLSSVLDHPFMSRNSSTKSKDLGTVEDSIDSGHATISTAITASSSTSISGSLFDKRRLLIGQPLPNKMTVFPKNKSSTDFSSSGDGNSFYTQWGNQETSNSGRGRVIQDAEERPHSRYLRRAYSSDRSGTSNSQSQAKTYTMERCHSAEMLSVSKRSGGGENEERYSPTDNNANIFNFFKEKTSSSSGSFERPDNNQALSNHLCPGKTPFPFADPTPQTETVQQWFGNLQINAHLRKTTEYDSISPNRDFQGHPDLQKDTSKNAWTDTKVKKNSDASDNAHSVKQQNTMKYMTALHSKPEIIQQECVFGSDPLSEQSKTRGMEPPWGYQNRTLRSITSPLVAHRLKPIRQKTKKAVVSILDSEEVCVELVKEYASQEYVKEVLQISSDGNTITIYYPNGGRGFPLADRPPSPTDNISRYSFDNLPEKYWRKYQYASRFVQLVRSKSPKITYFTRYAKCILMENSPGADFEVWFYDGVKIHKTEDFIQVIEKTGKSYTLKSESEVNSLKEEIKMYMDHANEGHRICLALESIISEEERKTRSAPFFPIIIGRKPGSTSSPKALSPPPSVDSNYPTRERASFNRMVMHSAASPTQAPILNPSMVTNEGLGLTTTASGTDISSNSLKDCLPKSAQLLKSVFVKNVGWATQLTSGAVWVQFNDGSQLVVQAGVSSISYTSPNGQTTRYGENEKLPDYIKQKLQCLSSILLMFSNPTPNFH
Sequence of ALK tyrosine kinase receptor (Homo sapiens) (Q9UM73 19-1620 limits assumed): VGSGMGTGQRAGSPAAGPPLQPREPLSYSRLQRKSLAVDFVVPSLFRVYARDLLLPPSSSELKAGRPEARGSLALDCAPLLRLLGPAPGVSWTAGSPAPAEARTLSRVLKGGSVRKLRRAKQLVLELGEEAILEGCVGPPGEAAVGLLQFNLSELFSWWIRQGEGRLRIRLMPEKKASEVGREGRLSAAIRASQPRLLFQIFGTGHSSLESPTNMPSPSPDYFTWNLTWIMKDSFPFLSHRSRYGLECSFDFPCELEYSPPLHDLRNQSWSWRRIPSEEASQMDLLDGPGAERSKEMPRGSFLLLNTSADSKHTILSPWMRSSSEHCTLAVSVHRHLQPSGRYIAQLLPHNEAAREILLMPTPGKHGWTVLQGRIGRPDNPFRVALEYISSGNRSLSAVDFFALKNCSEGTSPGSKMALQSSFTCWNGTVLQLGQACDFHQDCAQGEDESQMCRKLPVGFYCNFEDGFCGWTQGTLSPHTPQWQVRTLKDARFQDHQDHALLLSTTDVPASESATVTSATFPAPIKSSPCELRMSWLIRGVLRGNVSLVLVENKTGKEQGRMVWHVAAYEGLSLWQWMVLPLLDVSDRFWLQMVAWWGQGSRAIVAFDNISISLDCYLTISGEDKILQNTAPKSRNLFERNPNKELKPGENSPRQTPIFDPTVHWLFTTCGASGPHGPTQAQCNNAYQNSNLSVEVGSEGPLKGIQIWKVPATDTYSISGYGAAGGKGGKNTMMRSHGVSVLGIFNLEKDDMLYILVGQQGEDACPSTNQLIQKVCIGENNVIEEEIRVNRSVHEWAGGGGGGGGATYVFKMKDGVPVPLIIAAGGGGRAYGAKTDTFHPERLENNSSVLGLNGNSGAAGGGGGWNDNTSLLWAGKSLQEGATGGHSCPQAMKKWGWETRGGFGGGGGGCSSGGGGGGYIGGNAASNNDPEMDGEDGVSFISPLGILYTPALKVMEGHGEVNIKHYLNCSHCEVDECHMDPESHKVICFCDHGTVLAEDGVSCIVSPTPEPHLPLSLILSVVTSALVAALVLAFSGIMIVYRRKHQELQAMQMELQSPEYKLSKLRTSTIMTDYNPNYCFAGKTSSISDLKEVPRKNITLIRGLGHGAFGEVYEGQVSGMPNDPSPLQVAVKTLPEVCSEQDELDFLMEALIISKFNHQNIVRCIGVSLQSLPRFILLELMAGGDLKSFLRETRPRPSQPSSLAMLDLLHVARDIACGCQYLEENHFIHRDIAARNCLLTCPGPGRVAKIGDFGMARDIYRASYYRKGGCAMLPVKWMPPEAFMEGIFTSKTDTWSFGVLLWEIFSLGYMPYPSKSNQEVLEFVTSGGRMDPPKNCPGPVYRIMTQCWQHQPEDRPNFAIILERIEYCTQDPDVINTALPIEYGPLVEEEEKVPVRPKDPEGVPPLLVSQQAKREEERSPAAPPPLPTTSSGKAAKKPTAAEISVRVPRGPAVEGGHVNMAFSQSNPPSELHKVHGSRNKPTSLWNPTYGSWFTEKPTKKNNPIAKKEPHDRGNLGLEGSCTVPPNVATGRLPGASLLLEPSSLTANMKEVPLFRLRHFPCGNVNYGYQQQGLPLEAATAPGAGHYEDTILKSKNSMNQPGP
Sequence of Casein kinase I isoform epsilon (Homo sapiens) (P49674 whole entry, looked up, canonical isoform): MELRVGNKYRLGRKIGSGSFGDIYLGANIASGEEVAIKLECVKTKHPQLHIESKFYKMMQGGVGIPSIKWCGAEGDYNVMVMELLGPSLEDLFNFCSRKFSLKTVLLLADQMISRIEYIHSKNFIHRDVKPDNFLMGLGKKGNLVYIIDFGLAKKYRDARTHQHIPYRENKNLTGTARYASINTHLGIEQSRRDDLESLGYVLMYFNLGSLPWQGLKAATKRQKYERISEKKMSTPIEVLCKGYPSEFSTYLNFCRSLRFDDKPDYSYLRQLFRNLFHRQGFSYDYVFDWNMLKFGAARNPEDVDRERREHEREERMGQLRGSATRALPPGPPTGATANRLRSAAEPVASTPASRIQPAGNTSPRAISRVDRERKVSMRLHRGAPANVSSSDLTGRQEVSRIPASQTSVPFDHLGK
Sequence of Serine/threonine-protein kinase 10 (Homo sapiens) (O94804 whole entry, looked up): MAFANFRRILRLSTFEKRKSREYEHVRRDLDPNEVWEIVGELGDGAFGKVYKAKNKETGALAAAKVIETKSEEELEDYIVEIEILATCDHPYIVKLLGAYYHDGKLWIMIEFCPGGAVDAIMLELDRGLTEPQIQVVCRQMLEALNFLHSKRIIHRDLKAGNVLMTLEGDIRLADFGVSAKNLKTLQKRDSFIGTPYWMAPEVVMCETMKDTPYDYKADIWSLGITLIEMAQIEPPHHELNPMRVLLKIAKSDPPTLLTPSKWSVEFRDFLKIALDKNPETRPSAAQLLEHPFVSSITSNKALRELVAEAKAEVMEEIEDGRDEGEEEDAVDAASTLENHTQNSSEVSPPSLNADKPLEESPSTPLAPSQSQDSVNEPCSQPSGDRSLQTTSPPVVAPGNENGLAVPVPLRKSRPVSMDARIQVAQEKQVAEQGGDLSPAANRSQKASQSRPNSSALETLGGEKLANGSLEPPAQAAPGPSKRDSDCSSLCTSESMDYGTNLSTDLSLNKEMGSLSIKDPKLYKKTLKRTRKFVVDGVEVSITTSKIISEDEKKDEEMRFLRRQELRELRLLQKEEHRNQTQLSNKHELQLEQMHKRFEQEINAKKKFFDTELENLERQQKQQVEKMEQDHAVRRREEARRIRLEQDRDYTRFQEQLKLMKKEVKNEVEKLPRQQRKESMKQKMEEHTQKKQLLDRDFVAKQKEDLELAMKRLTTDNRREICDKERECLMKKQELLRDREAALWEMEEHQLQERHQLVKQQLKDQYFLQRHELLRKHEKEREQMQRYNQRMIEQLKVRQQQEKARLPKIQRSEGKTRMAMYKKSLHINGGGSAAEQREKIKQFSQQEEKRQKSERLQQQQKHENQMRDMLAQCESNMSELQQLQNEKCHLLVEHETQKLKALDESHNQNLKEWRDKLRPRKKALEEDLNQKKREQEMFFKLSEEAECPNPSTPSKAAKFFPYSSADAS

Structure (SMILES)	residual activity [1]	residual activity [2]	% Inhibition of Control Specific Binding (Mean n=2) [3]	residual activity [4]	residual activity [5]	residual activity [6]	residual activity [7]	residual activity [8]	residual activity [9]	residual activity [10]	residual activity [11]	inhibition [12]	residual activity [13]	% Inhibition of Control Specific Binding (Mean n=2) [14]	residual activity [15]	residual activity [16]	% Inhibition of Control Specific Binding (Mean n=2) [17]	residual activity [18]	residual activity [19]	residual activity [20]	further results
O=C(NS(=O)(=O)c1ccc(NCC2CCOCC2)c([N+](=O)[O-])c1)c1ccc(N2CCN(Cc3ccc(C(F)(F)F)cc3-c3ccc(Cl)cc3)CC2)cc1Oc1cnc2[nH]ccc2c1 [A-1210227]	81%	90%	-11.8%	100%	70%	100%	100%	96%	96%	100%	95%	-2.34%	94%	-44.1%	100%	100%	7.4%	86%	100%	80%	residual activity [21]: 67%; residual activity [22]: 79%; residual activity [23]: 78%; residual activity [24]: 95%; residual activity [25]: 98%; residual activity [26]: 100%; % Inhibition of Control Specific Binding (Mean n=2) [27]: 2.7%; inhibition at 60 min, 10 µM (Na+ channel (site 2)): -8.2%; residual activity [28]: 82%; residual activity [29]: 98%; residual activity [30]: 90%; % Inhibition of Control Specific Binding (Mean n=2) [31]: 23.2%; residual activity [32]: 93%; residual activity [33]: 71%; inhibition [34]: 1.6%; % Inhibition of Control Specific Binding (Mean n=2) [35]: 0.3%; residual activity [36]: 96%; residual activity [37]: 77%
CO[C@H]1CC[C@H](CNc2ccc(S(=O)(=O)NC(=O)c3ccc(N4CCN(CC5=C(c6ccc(Cl)cc6)CC(C)(C)CC5)CC4)cc3Oc3cnc4[nH]ccc4c3)cc2[N+](=O)[O-])CC1 [A-1211212]	82%	86%	-6.7%	70%	72%	90%	95%	56%	82%	97%	99%	3.54%	100%	1.6%	74%	100%	2.8%	96%	100%	100%	residual activity [21]: 61%; residual activity [22]: 89%; residual activity [23]: 79%; residual activity [24]: 88%; residual activity [25]: 100%; residual activity [26]: 94%; % Inhibition of Control Specific Binding (Mean n=2) [27]: 8.6%; inhibition at 60 min, 10 µM (Na+ channel (site 2)): -2.3%; residual activity [28]: 77%; residual activity [29]: 100%; residual activity [30]: 100%; % Inhibition of Control Specific Binding (Mean n=2) [31]: 1.1%; residual activity [32]: 68%; residual activity [33]: 67%; inhibition [34]: -2.68%; % Inhibition of Control Specific Binding (Mean n=2) [35]: -4.7%; residual activity [36]: 100%; residual activity [37]: 72%
